This is an account of results in patent US9163013B2, “Use of 1H-indazole-3-carboxamide compounds as glycogen synthase kinase 3 beta inhibitors” (AZIENDE CHIMICHE RIUNITE ANGELINI FRANCESCO A.C.R.A.F. …, priority 2012, dated 2015).

Counter-ions that a name gives are not always drawn.

Common to all, as to assay: Kinase selectivity panel
Format in all cases: biochemical

In one experiment the target is AurB/Aur1 kinase (h) (Homo sapiens (Human), UniProt Q96GD4). The note with it: duplicate, read-out: % inhibition of control values, AurB/Aur1 kinase (h). Put shortly: (§1)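 Human recombinant kinases were incubated with specific peptide substrates and ATP for 10, 15, 30, 60 or 90 min at 22° C. Phosphorylated substrate was detected by LANCE or HTRF. Compounds were tested at 10 μM in duplicate, with results given as percent inhibition of control specific activity.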

A further experiment concerns the target CDC2/CDK1 (h) (cycB) (Homo sapiens (Human), UniProt P06493). As to conditions: duplicate, read-out: % inhibition of control values, CDC2/CDK1 (h) (cycB). Put shortly: as §1
A further experiment addresses CHK1 (h) (Homo sapiens (Human), UniProt O14757). As to conditions: duplicate, read-out: % inhibition of control values, CHK1 (h). Put shortly:
as §1

For another experiment, the target named is EphB4 kinase (h) (Homo sapiens (Human), UniProt P54760). As to conditions: duplicate, read-out: % inhibition of control values, EphB4 kinase (h). Put shortly: as §1
The next experiment deals with GSK3beta (h) (Homo sapiens (Human), UniProt P49841). The note with it: for inhibition at 10 µM: duplicate, read-out: % inhibition of control values, GSK3beta (h); for Selectivity for GSK-3β compared to the other kinases of the panel: panel of 60 kinases, 10 μM. In short, it runs like this:
as §1

In a further experiment the target is IKKalpha (h) (Homo sapiens (Human), UniProt O15111). As to conditions: duplicate, read-out: % inhibition of control values, IKKalpha (h). Put shortly:
as §1

The next experiment addresses IRK (h) (InsR) (Homo sapiens (Human), UniProt P06213). As to conditions: duplicate, read-out: % inhibition of control values, IRK (h) (InsR). Put shortly:
as §1

A further experiment has as its target PDK1 (h) (Homo sapiens (Human), UniProt O15530). The note with it: duplicate, read-out: % inhibition of control values, PDK1 (h). Put shortly: as §1
Another experiment has as its target PKCalpha (h) (Homo sapiens (Human), UniProt P17252). As to conditions: duplicate, read-out: % inhibition of control values, PKCalpha (h). Put shortly:
as §1

In the next experiment the target is PKCbeta 1 (h) (Homo sapiens (Human), UniProt P05771). As to conditions: duplicate, read-out: % inhibition of control values, PKCbeta 1 (h). Put shortly:
as §1

The target of the next experiment is Src kinase (h) (Homo sapiens (Human), UniProt P12931). As to conditions: duplicate, read-out: % inhibition of control values, Src kinase (h). Put shortly:
as §1

For another experiment, the target named is p38alpha kinase (h) (Homo sapiens (Human), UniProt Q16539). As to conditions: duplicate, read-out: % inhibition of control values, p38alpha kinase (h). Put shortly: as §1
Another experiment concerns the target MEK1/MAP2K1 (h) (Homo sapiens (Human), UniProt Q02750). As to conditions: duplicate, read-out: % inhibition of control values, MEK1/MAP2K1 (h). In short, it runs like this: as §1
A further experiment addresses MSK1 (h) (Homo sapiens (Human), UniProt O75582). The note with it: duplicate, read-out: % inhibition of control values, MSK1 (h). Put shortly: as §1
The target in a further experiment is NEK1 (h) (Homo sapiens (Human), UniProt Q96PY6). As to conditions: duplicate, read-out: % inhibition of control values, NEK1 (h). In short, it runs like this: as §1
In the next experiment the target is mTOR kinase (h) (FRAP1) (Homo sapiens (Human), UniProt P42345). The note with it: duplicate, read-out: % inhibition of control values, mTOR kinase (h) (FRAP1). In short, it runs like this:
as §1

The target in the next experiment is p38gamma kinase (h) (Homo sapiens (Human), UniProt P53778). As to conditions: duplicate, read-out: % inhibition of control values, p38gamma kinase (h). Put shortly:
as §1

A further experiment concerns the target smMLCK (h) (MYLK) (Homo sapiens (Human), UniProt Q15746). The note with it: duplicate, read-out: % inhibition of control values, smMLCK (h) (MYLK). Put shortly: as §1

PDK1 (h), sequence (O15530 whole entry): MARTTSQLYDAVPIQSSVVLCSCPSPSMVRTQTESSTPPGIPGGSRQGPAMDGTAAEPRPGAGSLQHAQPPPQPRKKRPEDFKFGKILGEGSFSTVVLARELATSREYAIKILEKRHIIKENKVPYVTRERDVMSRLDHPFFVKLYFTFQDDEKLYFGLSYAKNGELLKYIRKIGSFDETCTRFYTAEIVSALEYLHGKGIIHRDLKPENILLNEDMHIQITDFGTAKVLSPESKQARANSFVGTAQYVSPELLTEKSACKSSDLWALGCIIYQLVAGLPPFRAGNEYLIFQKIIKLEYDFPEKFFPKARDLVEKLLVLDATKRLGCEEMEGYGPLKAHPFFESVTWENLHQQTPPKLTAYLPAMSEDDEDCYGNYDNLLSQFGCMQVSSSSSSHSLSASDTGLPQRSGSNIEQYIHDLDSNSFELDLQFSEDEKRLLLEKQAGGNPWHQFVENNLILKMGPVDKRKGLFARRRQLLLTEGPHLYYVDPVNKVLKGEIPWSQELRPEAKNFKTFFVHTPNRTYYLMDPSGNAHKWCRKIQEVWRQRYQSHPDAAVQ
CHK1 (h), sequence (O14757 whole entry): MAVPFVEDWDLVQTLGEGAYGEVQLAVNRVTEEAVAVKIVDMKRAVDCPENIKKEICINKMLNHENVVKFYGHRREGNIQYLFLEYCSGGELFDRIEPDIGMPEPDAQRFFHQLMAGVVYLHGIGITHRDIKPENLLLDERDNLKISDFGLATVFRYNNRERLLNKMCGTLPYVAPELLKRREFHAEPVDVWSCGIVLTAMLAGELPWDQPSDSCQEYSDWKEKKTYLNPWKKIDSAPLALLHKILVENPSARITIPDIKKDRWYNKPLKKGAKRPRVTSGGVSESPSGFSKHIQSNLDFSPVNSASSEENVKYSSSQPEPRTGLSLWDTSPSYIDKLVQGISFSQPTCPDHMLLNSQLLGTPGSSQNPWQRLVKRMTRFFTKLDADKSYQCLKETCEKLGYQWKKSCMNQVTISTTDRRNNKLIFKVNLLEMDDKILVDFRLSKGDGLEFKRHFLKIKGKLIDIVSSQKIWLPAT
Src kinase (h), sequence (P12931 whole entry, looked up): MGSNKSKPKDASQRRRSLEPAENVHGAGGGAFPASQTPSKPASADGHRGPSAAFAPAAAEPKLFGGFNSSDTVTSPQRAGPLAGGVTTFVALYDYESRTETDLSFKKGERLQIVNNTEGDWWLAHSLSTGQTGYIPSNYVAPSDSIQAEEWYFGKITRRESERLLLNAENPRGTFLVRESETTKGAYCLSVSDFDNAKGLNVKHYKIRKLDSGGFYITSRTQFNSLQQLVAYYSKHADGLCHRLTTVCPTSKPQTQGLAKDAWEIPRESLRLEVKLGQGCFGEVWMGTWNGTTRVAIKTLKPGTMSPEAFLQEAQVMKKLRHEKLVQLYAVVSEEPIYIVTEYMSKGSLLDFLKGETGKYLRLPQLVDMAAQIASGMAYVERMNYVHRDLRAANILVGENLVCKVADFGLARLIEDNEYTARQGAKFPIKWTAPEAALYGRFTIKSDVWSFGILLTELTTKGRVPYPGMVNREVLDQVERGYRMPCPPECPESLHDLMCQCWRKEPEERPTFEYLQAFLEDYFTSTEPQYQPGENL
EphB4 kinase (h), sequence (P54760 16-987): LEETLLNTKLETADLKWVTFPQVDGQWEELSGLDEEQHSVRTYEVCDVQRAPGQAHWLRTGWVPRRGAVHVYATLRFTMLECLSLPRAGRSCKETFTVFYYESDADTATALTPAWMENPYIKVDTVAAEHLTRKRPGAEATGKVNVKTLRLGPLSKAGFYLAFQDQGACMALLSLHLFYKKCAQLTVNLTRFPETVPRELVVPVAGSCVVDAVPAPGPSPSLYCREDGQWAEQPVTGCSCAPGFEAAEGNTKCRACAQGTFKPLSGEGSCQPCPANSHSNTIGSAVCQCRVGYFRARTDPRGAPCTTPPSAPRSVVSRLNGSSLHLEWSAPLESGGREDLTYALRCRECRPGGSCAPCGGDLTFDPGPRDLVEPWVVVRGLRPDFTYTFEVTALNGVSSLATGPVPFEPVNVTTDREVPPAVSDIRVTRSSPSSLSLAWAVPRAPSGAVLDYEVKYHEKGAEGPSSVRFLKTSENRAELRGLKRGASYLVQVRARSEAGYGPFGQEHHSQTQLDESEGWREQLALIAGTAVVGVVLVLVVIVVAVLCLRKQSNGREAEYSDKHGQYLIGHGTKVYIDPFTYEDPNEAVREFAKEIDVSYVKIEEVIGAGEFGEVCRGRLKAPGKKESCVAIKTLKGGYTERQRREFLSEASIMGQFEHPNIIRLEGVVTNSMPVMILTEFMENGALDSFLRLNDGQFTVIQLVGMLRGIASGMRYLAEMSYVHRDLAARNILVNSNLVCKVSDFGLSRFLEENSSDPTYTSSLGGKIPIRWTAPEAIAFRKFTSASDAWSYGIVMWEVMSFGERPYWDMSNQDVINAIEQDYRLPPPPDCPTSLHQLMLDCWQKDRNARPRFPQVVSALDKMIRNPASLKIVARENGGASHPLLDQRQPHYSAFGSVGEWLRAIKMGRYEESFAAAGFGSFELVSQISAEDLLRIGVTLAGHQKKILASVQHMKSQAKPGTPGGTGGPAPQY
p38alpha kinase (h), sequence (Q16539 whole entry): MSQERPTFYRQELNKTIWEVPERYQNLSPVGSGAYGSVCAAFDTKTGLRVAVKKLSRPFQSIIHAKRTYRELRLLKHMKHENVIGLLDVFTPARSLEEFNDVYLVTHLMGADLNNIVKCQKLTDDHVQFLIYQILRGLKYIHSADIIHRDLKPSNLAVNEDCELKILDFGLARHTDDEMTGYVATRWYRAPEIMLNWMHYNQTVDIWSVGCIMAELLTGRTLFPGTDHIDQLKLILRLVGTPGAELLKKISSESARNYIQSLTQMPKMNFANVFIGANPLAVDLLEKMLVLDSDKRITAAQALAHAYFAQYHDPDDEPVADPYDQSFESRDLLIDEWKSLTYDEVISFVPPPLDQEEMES
IRK (h) (InsR), sequence (P06213 28-1382): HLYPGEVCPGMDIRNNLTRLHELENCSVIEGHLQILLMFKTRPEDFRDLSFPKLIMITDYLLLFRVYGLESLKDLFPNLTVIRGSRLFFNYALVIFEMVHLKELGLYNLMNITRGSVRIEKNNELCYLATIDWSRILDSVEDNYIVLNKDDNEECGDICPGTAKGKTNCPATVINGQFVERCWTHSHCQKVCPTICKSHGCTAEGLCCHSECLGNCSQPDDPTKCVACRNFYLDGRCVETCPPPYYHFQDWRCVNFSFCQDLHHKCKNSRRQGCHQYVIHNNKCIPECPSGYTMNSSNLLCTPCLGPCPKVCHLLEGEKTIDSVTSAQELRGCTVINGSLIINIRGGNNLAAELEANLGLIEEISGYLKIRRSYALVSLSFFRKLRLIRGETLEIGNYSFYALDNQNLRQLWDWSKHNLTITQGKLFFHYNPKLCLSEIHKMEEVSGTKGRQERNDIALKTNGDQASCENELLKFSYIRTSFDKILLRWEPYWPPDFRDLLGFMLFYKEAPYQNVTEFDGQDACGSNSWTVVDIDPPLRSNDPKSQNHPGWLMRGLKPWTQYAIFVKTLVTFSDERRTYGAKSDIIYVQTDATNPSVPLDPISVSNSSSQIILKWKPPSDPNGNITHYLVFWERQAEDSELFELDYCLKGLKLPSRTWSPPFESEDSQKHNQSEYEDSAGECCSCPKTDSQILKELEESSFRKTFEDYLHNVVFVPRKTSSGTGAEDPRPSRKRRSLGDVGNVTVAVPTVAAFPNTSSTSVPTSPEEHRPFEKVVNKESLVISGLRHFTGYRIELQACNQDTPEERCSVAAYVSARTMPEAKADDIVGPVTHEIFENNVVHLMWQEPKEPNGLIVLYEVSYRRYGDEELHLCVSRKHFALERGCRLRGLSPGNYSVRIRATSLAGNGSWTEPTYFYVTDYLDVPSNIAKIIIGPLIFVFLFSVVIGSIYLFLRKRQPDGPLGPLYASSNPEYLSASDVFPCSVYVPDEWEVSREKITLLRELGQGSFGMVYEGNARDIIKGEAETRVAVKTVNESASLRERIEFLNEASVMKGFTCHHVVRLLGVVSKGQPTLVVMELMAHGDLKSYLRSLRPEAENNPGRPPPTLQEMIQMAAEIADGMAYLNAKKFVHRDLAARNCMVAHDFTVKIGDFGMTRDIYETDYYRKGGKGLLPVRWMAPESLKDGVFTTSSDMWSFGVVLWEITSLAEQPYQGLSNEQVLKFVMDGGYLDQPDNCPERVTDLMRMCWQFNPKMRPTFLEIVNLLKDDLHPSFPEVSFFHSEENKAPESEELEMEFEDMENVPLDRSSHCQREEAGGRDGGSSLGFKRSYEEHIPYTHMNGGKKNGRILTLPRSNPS

On to `COc1ccncc1-c1ccc2[nH]nc(C(=O)NCC3CCN(Cc4ccc(C(=O)O)o4)CC3)c2c1` [Compound 21, 5-({4-[({[5-(4-Methoxypyridin-3-yl)-1H-indazol-3-yl]carbonyl}amino)methyl]piperidin-1-yl}methyl)furan-2-carboxylic acid formate], for which the inhibition at 10 µM came to 10% on AurB/Aur1 kinase (h); 99% at CDC2/CDK1 (h) (cycB); 1% on CHK1 (h); 3% on EphB4 kinase (h); 96% at GSK3beta (h); 5% at IKKalpha (h). The inhibition at 10 µM amounted to 0% on IRK (h) (InsR); 0% at PDK1 (h); 20% at PKCalpha (h); 0% on PKCbeta 1 (h); 0% on Src kinase (h); 1% on p38alpha kinase (h). The “Selectivity for GSK-3β compared to the other kinases of the panel” value (shortened to “Selectivity for GSK-3β”) on GSK3beta (h) was “good affinity to GSK-3β when compared to most of other kinases of the same family”.

For the molecule `COc1ccc2[nH]nc(C(=O)NCC3CCN(CCc4ccc(O)cc4)CC3)c2c1` [Compound 1, N-({1-[2-(4-hydroxyphenyl)ethyl]-piperidin-4-yl}methyl)-5-methoxy-1H-indazole-3-carboxamide], the inhibition at 10 µM at AurB/Aur1 kinase (h) worked out at 11%; on CDC2/CDK1 (h) (cycB), 31%; on CHK1 (h) it was 12%; at EphB4 kinase (h) it was 0%; at GSK3beta (h), 92%; at IKKalpha (h) it was 0%. Also, the inhibition at 10 µM on IRK (h) (InsR) was 18%; at MEK1/MAP2K1 (h), 25%; at MSK1 (h) it was 8%; at NEK1 (h), 1%; at PDK1 (h) it was 8%; at PKCalpha (h), 8%. For the same molecule, the inhibition at 10 µM on PKCbeta 1 (h) was 9%; on Src kinase (h), 0%; at mTOR kinase (h) (FRAP1), 0%; on p38alpha kinase (h), 0%; on p38gamma kinase (h), 2%; at smMLCK (h) (MYLK), 0%. Moreover, at GSK3beta (h), the “Selectivity for GSK-3β” value was “good selectivity profile”.

Regarding `COc1ccc2[nH]nc(C(=O)NCC3CCN(Cc4ccc(C(=O)O)o4)CC3)c2c1` [Compound 24, 5-{[4-({[(5-Methoxy-1H-indazol-3-yl)carbonyl]amino}methyl)piperidin-1-yl]methyl}furan-2-carboxylic acid], the inhibition at 10 µM at AurB/Aur1 kinase (h) came out at 0%; at CDC2/CDK1 (h) (cycB), 10%; on CHK1 (h) it was 0%; on EphB4 kinase (h) it was 0%; at GSK3beta (h) it was 94%; on IKKalpha (h), 2%. The inhibition at 10 µM on IRK (h) (InsR) came to 3%; on PDK1 (h) it was 0%; at PKCalpha (h), 0%; on PKCbeta 1 (h), 0%; at Src kinase (h), 0%; on p38alpha kinase (h), 0%. Moreover, the “Selectivity for GSK-3β” value at GSK3beta (h) is “good selectivity profile”.
